# Molecular target: Fatty acid synthase (Homo sapiens) (UniProt P49327)
# Experiment: FAS thioesterase domain inhibitors, dose response, biochemical, endpoint fluorescence intensity, uHTS hits (AID 624327)
# Settings: recombinant FAS-TE, OMFH fluorogenic substrate
# Chain of Fatty acid synthase (Homo sapiens) (P49327 whole entry, looked up, the tested form may be a part): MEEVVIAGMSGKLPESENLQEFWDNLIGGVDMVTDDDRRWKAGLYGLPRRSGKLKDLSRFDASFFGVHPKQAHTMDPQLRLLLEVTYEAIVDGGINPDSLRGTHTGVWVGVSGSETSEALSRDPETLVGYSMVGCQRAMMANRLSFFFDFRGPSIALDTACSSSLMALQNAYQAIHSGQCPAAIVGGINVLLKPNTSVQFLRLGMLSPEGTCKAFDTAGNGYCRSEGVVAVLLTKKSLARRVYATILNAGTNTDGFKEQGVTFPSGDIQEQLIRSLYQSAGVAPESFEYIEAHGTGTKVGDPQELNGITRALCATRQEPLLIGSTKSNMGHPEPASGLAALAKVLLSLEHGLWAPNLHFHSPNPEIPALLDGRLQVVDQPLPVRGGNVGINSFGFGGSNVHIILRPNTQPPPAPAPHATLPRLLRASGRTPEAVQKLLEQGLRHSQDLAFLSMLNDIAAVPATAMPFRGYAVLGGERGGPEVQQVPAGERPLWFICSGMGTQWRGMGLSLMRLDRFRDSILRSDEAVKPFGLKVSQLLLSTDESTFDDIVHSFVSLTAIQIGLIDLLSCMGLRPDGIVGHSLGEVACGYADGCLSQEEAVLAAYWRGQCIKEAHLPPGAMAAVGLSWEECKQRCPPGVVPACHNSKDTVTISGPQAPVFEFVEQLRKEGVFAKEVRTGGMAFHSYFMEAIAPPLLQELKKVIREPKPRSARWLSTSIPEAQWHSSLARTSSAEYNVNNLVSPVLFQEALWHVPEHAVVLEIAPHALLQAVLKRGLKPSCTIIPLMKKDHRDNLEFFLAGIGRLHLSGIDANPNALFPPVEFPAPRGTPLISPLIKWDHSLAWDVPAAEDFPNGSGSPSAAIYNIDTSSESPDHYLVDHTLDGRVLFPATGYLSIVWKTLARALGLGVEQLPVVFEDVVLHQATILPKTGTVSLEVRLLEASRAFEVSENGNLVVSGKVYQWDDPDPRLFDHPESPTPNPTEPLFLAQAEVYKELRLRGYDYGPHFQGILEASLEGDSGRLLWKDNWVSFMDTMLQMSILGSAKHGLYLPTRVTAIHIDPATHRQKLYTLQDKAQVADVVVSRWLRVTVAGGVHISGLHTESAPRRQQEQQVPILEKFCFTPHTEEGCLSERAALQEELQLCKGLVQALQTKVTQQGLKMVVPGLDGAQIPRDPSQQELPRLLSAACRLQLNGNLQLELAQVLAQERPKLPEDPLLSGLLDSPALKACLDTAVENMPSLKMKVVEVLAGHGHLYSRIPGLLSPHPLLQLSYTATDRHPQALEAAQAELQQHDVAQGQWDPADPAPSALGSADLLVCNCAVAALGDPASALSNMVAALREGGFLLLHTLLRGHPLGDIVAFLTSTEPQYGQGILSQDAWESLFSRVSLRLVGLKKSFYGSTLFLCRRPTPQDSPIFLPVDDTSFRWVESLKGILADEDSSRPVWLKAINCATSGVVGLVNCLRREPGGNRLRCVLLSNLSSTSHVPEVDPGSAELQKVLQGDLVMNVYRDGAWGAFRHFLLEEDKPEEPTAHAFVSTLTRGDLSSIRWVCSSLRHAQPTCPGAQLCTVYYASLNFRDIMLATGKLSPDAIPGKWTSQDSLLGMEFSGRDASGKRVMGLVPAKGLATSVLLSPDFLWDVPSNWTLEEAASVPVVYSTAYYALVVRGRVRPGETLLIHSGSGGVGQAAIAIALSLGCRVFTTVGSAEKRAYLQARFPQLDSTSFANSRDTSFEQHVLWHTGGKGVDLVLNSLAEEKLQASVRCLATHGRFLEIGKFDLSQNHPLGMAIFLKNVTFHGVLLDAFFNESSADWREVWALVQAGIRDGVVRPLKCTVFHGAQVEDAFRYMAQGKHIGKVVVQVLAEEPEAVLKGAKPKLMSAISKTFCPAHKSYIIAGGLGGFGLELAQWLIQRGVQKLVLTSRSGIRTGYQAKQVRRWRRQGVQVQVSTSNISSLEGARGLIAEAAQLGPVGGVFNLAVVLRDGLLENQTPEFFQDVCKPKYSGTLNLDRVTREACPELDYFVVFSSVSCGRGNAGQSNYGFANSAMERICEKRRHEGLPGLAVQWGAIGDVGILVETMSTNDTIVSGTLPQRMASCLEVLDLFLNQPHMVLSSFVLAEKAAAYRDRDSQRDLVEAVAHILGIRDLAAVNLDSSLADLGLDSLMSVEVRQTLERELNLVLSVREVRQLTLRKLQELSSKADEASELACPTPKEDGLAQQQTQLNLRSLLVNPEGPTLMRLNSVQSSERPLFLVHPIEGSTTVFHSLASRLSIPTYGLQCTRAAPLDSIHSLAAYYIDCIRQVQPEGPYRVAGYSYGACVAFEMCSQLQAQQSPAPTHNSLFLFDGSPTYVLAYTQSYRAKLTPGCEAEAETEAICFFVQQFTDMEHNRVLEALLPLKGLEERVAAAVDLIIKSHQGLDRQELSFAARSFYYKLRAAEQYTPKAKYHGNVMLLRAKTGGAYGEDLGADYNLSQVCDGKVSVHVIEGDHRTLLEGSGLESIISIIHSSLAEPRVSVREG
row,SMILES,IC50 [µM]
1,CCc1nc2c(OCc3ccc(C(F)(F)F)cc3)cccn2c1N(C=O)Cc1ccc(OC)cc1,9.2
2,O=C(OCc1ccc([N+](=O)[O-])cc1)c1cc([N+](=O)[O-])ccc1N1CCOCC1,2.72
3,O=S(=O)(c1ccc(-c2csc(-c3cccnc3)n2)cc1)N1CCCCC1,2.68
4,O=C(c1ccc(Cl)c([N+](=O)[O-])c1)N1CCN(c2ccccc2)CC1,12
5,Oc1ccc(Cl)cc1Sc1cc(Cl)ccc1O,3.55
6,COC(=O)c1cc(C(=O)NC(C)C2CC3CCC2C3)cc([N+](=O)[O-])c1 (stereo unspecified),11.6
7,CCn1c(=O)c([N+](=O)[O-])c(N2CCN(Cc3ccc4c(c3)OCO4)CC2)c2ccccc21,1.83
8,O=C(C[C@H]1C[C@H](C(=O)N2CCOCC2)[C@@]2(CCC3CCCC3)c3[nH]c4cc(-c5ccco5)ccc4c3CCN2C1=O)NCCc1ccccn1,6.97
9,CCOC(=O)[C@]12Cc3ccccc3[C@H]1N(C1CCCCC1)C(=O)c1cc(OC)ccc12,8.27
10,Cc1cc(C(=O)N/N=C/c2cc([N+](=O)[O-])cc(C)c2O)n[nH]1,11.7
11,O=C(CN1C(=O)c2cccc([N+](=O)[O-])c2C1=O)N1CCc2ccccc2C1,9.44
12,O=S(=O)(c1ccc(-c2csc(-c3cccnc3)n2)cc1)N1CCOCC1,2.14
13,O=C(Nc1nc(-c2ccc(S(=O)(=O)N3CCCC3)cc2)cs1)c1ccco1,4.68
14,COc1ccc(CNC(=O)/C=C/c2cc([N+](=O)[O-])ccc2OC(F)F)cc1OC,3.26
15,CC(C)(C)c1nc2scc(-c3cccs3)c2c(=O)o1,3.39
16,COc1ccc(/C=C(\NC(=O)c2ccc([N+](=O)[O-])cc2)C(=O)NCCN2CCOCC2)cc1,5.25
17,O=S(=O)(c1ccc(-c2csc(Nc3ccc(F)cc3)n2)cc1)N1CCCC1,14.8
18,CN(C(=O)Nc1ccc(Cl)cc1Cl)[C@H]1c2cc(Br)ccc2OC[C@H]1CO,11
19,CCN(CC(=O)NCc1cccs1)S(=O)(=O)c1ccc([N+](=O)[O-])cc1,17.7
20,CNS(=O)(=O)c1ccc2c(c1)C(=O)c1cc(S(=O)(=O)NC)ccc1CC2,0.861
21,O=C(Nc1nc(-c2ccc(S(=O)(=O)N3CCCC3)cc2)cs1)C1COc2ccccc2O1 (stereo unspecified),1.31
22,CC1(C(=O)NS(=O)(=O)c2ccc(C#N)cc2)CCN1C(=O)c1ccc(C2CCCCC2)cc1 (stereo unspecified),5.24
23,CC(C)(C)OC(=O)NCCCC[C@H](NC(=O)c1nc[nH]c1C(=O)NC1CCN(C(=O)OC(C)(C)C)CC1)C(=O)OC(C)(C)C,1.56
24,O=S(=O)(c1ccc(-c2csc(-c3cccnc3)n2)cc1)N1CCCC1,1.51
25,CCC(C)(C)C1CCC(=NNS(=O)(=O)c2ccc(C)c([N+](=O)[O-])c2)CC1 (stereo unspecified),17.9

# Further lines, results first:
row,IC50 [µM],SMILES
1,15.8,COc1ccc(NC(=O)CC2C(=O)N(C)C(=S)N2Cc2cccs2)cc1 (stereo unspecified)
2,5.21,CN(C)S(=O)(=O)c1ccc(-c2csc(-c3cccnc3)n2)cc1
3,1.52,Cc1cccc(N2CCN(C(=O)CNC(=O)c3cccc([N+](=O)[O-])c3)CC2)c1C
4,11.8,COc1ccccc1C(=O)Nc1nc(-c2ccc(S(=O)(=O)N3CCOCC3)cc2)cs1
5,6.86,O=C(COc1ccc2c(-c3ccccc3)cc(=O)oc2c1)N[C@@H](Cc1c[nH]c2ccc(O)cc12)C(=O)O
6,7.12,CCCC(C)c1nnc(NC(=O)c2cc(C(=O)OC)cc([N+](=O)[O-])c2)s1 (stereo unspecified)
7,11.4,O=C(Nc1nnc(SCc2ccccc2Cl)s1)c1cccc([N+](=O)[O-])c1
8,0.417,O=C(COc1ccccc1)Nc1nc(-c2ccc(S(=O)(=O)N3CCOCC3)cc2)cs1
9,13.5,O=C(CC(c1ccccc1)c1ccccc1)NCC(O)c1ccc([N+](=O)[O-])cc1 (stereo unspecified)
10,4.69,Cc1ccc(NC(=O)NNC(=O)Cn2nc(-c3ccccc3)c(-c3ccccc3)c(C#N)c2=O)cc1
11,12,N/C(=N\OC(=O)CCCc1ccccc1)c1cccc([N+](=O)[O-])c1
12,0.199,CCCCC(=O)Nc1nc(-c2ccc(S(=O)(=O)N3CCOCC3)cc2)cs1
13,< 0.16,CC(C)(C)OC(=O)NCCCC[C@H](NC(=O)c1nc[nH]c1C(=O)NCC(=O)OCc1ccccc1)C(=O)OC(C)(C)C
14,12.3,COCc1cc(C)nc(SCC[N+](C)(C)CC(=O)Nc2ccccc2)c1C#N
15,8.69,CCCc1cc(C(=O)Nc2cccc([N+](=O)[O-])c2)cs1
16,3.85,COc1ccc2cc3cc(C(=O)N4CC(C)CC(C)C4)oc3nc2c1 (stereo unspecified)

# From PubChem BioAssay AID624327 (Sanford-Burnham Center for Chemical Genomics, 2012)
